For 32 molecules, AC50 results are on record in patent publication US20250171437A1 (Agios Pharmaceuticals,Inc., priority 2022, published 2025).

The structures appear in SMILES notation.

The target of one experiment is T1, human PAH with the R408W mutation (A375 R408W cells) (Homo sapiens, UniProt P00439, R408W).
T1 construct: expressed in transfected cells
T1 sequence (P00439 1-452 R408W): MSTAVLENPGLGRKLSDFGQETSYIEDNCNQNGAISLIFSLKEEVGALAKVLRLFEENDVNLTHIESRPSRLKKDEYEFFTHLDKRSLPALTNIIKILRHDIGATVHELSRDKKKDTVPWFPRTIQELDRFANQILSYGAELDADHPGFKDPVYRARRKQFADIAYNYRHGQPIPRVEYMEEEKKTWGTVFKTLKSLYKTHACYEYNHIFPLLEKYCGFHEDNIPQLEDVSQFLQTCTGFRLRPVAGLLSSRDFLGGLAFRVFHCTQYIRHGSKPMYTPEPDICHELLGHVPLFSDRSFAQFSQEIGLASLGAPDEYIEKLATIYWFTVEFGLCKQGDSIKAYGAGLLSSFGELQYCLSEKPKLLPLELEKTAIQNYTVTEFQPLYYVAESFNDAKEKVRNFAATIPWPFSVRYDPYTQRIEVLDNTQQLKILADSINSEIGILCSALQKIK
Briefly: Cell Based Phenylalanine Flux Assay. The note with it: A375 R408W cells; 24 hrs with compound, then 20 μM sepiapterin and 800 μM 13C9,15N-Phenylalanine for 4 hours; 13C-Tyrosine by LC-MS; average where tested multiple times. Summed up:
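Puromycin-selected A375 line, lentiviral hPAH R408W; cmpd 24 h, 37 °C, 5% CO2, 0.5% DMSO; then 20 μM sepiapterin + 800 μM 13C9,15N-Phe, 4 h; media extracted in 80% MeCN; 13C-Tyr by LC-MS; AC50 from 10-pt curves.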
In the case of `Cn1cncc1-c1nc(C(F)F)c(C(=O)N2CCc3[nH]cnc3[C@@H]2c2nc3cc(F)ccc3o2)o1` [Example 688, (R)-(4-(difluoromethyl)-2-(1-methyl-1H-imidazol-5-yl)oxazol-5-yl)(4-(5-fluorobenzo[d]oxazol-2-yl)-6,7-dihydro-1H-imidazo[4,5-c]pyridin-5(4H)-yl)methanone], the AC50 is 1000 to 5000 nM. For `Cn1nc(Br)nc1C(=O)N1CCc2[nH]cnc2[C@H]1c1nc2c(F)cccc2o1` [Example 471, (S)-(3-bromo-1-methyl-1H-1,2,4-triazol-5-yl)(4-(4-fluorobenzo[d]oxazol-2-yl)-6,7-dihydro-1H-imidazo[4,5-c]pyridin-5(4H)-yl)methanone], the AC50 lay within 500 to 1000 nM.

Consider `CC(C)(C)c1nnc(C(=O)N2CCc3[nH]cnc3[C@@H]2c2nc3c(F)ccc(F)c3o2)o1` [Example 851, (R)-(5-(tert-butyl)-1,3,4-oxadiazol-2-yl)(4-(4,7-difluorobenzo[d]oxazol-2-yl)-6,7-dihydro-1H-imidazo[4,5-c]pyridin-5(4H)-yl)methanone], for which the AC50 fell in the range of 500 to 1000 nM. Still for that read-out and setting: with `CN1CCN(c2ccc3c(C(=O)N4CCc5[nH]cnc5[C@@H]4c4nc5cc(F)ccc5o4)cnn3c2)CC1` [Example 66, (R)-(4-(5-fluorobenzo[d]oxazol-2-yl)-6,7-dihydro-1H-imidazo[4,5-c]pyridin-5(4H)-yl)(6-(4-methylpiperazin-1-yl)pyrazolo[1,5-a]pyridin-3-yl)methanone] the figure was at least 5000 nM; with `O=C(c1ocnc1CF)N1CCc2[nH]cnc2[C@@H]1c1nc2cc(F)ccc2o1` [Example 180, (R)-(4-(5-fluorobenzo[d]oxazol-2-yl)-6,7-dihydro-1H-imidazo[4,5-c]pyridin-5(4H)-yl)(4-(fluoromethyl)oxazol-5-yl)methanone], 1000 to 5000 nM; with `O=C(c1cnn2cc(N3CCC4(CC3)CC4)ccc12)N1CCc2[nH]cnc2[C@@H]1c1nc2c(F)cccc2o1` [Example 506, (R)-(6-(6-azaspiro[2.5]octan-6-yl)pyrazolo[1,5-a]pyridin-3-yl)(4-(4-fluorobenzo[d]oxazol-2-yl)-6,7-dihydro-1H-imidazo[4,5-c]pyridin-5(4H)-yl)methanone], 1000 to 5000 nM. Same read-out and setting: then `Cc1ccc2oc([C@@H]3c4nc[nH]c4CCN3C(=O)c3ocnc3C(F)F)nc2c1` [Example 137, (S)-(4-(difluoromethyl)oxazol-5-yl)(4-(5-methylbenzo[d]oxazol-2-yl)-6,7-dihydro-1H-imidazo[4,5-c]pyridin-5(4H)-yl)methanone], with at most 500 nM; and `O=C(c1cnn2cc(N3CCOCC3)c(Cl)cc12)N1CCc2[nH]cnc2[C@@H]1c1nc2cc(F)ccc2o1` [Example 176, (R)-(5-chloro-6-morpholinopyrazolo[1,5-a]pyridin-3-yl)(4-(5-fluorobenzo[d]oxazol-2-yl)-6,7-dihydro-1H-imidazo[4,5-c]pyridin-5(4H)-yl)methanone], with 1000 to 5000 nM. The same measure, in the same setting: with `Cn1cc(-c2nc(C(F)F)c(C(=O)N3CCc4[nH]cnc4[C@@H]3c3nc4cc(F)ccc4o3)o2)cn1` [Example 87, (R)-(4-(difluoromethyl)-2-(1-methyl-1H-pyrazol-4-yl)oxazol-5-yl)(4-(5-fluorobenzo[d]oxazol-2-yl)-6,7-dihydro-1H-imidazo[4,5-c]pyridin-5(4H)-yl)methanone] the figure was 1000 to 5000 nM; with `CC(C)(O)c1nc(Br)c(C(=O)N2CCc3[nH]cnc3[C@H]2c2nc3ccc(F)cc3o2)o1` [Example 249, (S)-(4-bromo-2-(2-hydroxypropan-2-yl)oxazol-5-yl)(4-(6-fluorobenzo[d]oxazol-2-yl)-6,7-dihydro-1H-imidazo[4,5-c]pyridin-5(4H)-yl)methanone], 500 to 1000 nM; with `COCc1ccc2c(C(=O)N3CCc4[nH]cnc4[C@@H]3c3nc4c(F)cccc4o3)cnn2c1` [Example 276, (R)-(4-(4-fluorobenzo[d]oxazol-2-yl)-6,7-dihydro-1H-imidazo[4,5-c]pyridin-5(4H)-yl)(6-(methoxymethyl)pyrazolo[1,5-a]pyridin-3-yl)methanone], at least 5000 nM. As for `O=C(c1ocnc1C(F)F)N1CCc2[nH]cnc2[C@@H]1c1nc2c(OC(F)(F)F)cccc2o1` [Example 535, (R)-(4-(difluoromethyl)oxazol-5-yl)(4-(4-(trifluoromethoxy)benzo[d]oxazol-2-yl)-6,7-dihydro-1H-imidazo[4,5-c]pyridin-5(4H)-yl)methanone], the AC50 was at most 500 nM. Still for that read-out and setting: with `CC(F)(F)c1ncoc1C(=O)N1CCc2[nH]cnc2[C@@H]1c1nc2cccc(F)c2o1` [Example 619, (R)-(4-(1,1-difluoroethyl)oxazol-5-yl)(4-(7-fluorobenzo[d]oxazol-2-yl)-6,7-dihydro-1H-imidazo[4,5-c]pyridin-5(4H)-yl)methanone] the figure was 1000 to 5000 nM; with `Cn1nccc1C(=O)N1CCc2[nH]cnc2[C@@H]1c1nc2ccccc2o1` [Example 712, (R)-(4-(benzo[d]oxazol-2-yl)-6,7-dihydro-1H-imidazo[4,5-c]pyridin-5(4H)-yl)(1-methyl-1H-pyrazol-5-yl)methanone], 1000 to 5000 nM; with `O=C(c1nnc(-c2ccn(C(F)F)n2)o1)N1CCc2[nH]cnc2[C@@H]1c1nc2c(F)ccc(F)c2o1` [Example 816, (R)-(4-(4,7-difluorobenzo[d]oxazol-2-yl)-6,7-dihydro-1H-imidazo[4,5-c]pyridin-5(4H)-yl)(5-(1-(difluoromethyl)-1H-pyrazol-3-yl)-1,3,4-oxadiazol-2-yl)methanone], at most 500 nM. `CN1CCN(c2ccc3c(C(=O)N4CCc5[nH]cnc5[C@H]4c4nc5cc(F)ccc5o4)cnn3c2)CC1(C)C` [Example 139, (S)-(4-(5-fluorobenzo[d]oxazol-2-yl)-6,7-dihydro-1H-imidazo[4,5-c]pyridin-5(4H)-yl)(6-(3,3,4-trimethylpiperazin-1-yl)pyrazolo[1,5-a]pyridin-3-yl)methanone]: the AC50 fell in the range of 500 to 1000 nM. As to `O=C(c1ocnc1C(F)F)N1CCc2[nH]cnc2[C@H]1c1nc2cc(Cl)cc(F)c2o1` [Example 608, (S)-(4-(5-chloro-7-fluorobenzo[d]oxazol-2-yl)-6,7-dihydro-1H-imidazo[4,5-c]pyridin-5(4H)-yl)(4-(difluoromethyl)oxazol-5-yl)methanone], the concentration at half-maximal activity (AC50) was at most 500 nM. Still for that read-out and setting: with `CN1CCN(c2ccc3c(C(=O)N4CCc5[nH]cnc5[C@H]4c4nc5c(F)cccc5o4)cnn3c2)CC1` [Example 475, (S)-(4-(4-fluorobenzo[d]oxazol-2-yl)-6,7-dihydro-1H-imidazo[4,5-c]pyridin-5(4H)-yl)(6-(4-methylpiperazin-1-yl)pyrazolo[1,5-a]pyridin-3-yl)methanone] the figure was at most 500 nM; with `Cc1ccc2oc([C@@H]3c4nc[nH]c4CCN3C(=O)c3oc(-c4cncn4C)nc3C(F)F)nc2c1` [Example 758, (S)-(4-(difluoromethyl)-2-(1-methyl-1H-imidazol-5-yl)oxazol-5-yl)(4-(5-methylbenzo[d]oxazol-2-yl)-6,7-dihydro-1H-imidazo[4,5-c]pyridin-5(4H)-yl)methanone], at most 500 nM. For the molecule `FC(F)(F)c1cnc(N2Cc3[nH]cnc3[C@H]2c2nc3ccccc3o2)nc1` [Example 949, (S)-2-(5-(5-(trifluoromethyl)pyrimidin-2-yl)-1,4,5,6-tetrahydropyrrolo[3,4-d]imidazol-4-yl)benzo[d]oxazole], the AC50 is 1000 to 5000 nM. Regarding `O=C(c1cccnc1)N1Cc2[nH]cnc2[C@H]1c1nc2ccccc2o1` [Example 927, (S)-(4-(benzo[d]oxazol-2-yl)-4,6-dihydropyrrolo[3,4-d]imidazol-5(1H)-yl)(pyridin-3-yl)methanone], the AC50 was at least 5000 nM. On the same count and under the same terms, then `O=C(c1ccnn1C(F)(F)F)N1Cc2[nH]cnc2[C@H]1c1nc2ccccc2o1` [Example 953, (S)-(4-(benzo[d]oxazol-2-yl)-4,6-dihydropyrrolo[3,4-d]imidazol-5(1H)-yl)(1-(trifluoromethyl)-1H-pyrazol-5-yl)methanone], with 1000 to 5000 nM.

The same experiment, now with this note: A375 cells expressing R408W PAH; 24 hrs with compound, then 20 μM sepiapterin and 800 μM 13C9,15N-Phenylalanine for 4 hours; 13C-Tyrosine by LC-MS; average where tested multiple times.
On to `Cc1nc(CN(C)C)oc1C(=O)N1CCc2[nH]cnc2C1c1nc2cc(F)ccc2o1` (centres unmarked), for which the AC50 lay within 1000 to 5000 nM. Still for that read-out and setting: with `Cc1nc(C(C)O)oc1C(=O)N1CCc2[nH]cnc2C1c1nc2c(F)cccc2o1` (centres unmarked) the figure was at least 5000 nM.

Regarding `Cn1ncnc1C(=O)N1CCc2[nH]cnc2C1c1nc2cc(F)ccc2o1` (centres unmarked), the AC50 was 1000 to 5000 nM. Still for that read-out and setting: with `CC(C)(c1nc(C(F)F)c(C(=O)N2CCc3[nH]cnc3C2c2nc3cc(F)ccc3o2)o1)S(C)(=O)=O` (centres unmarked) the figure was 1000 to 5000 nM; with `Cn1ncnc1C(=O)N1CCc2[nH]cnc2C1c1nc2ccc(F)cc2o1` (centres unmarked), 1000 to 5000 nM. Still for that read-out and setting: then `O=C(c1cnco1)N1CCc2[nH]cnc2C1c1nc2ccc(Br)cc2o1` (centres unmarked), with at least 5000 nM. Consider `Cc1ccc2nc(C3c4nc[nH]c4CCN3C(=O)Cc3nncs3)oc2c1` (centres unmarked), for which the AC50 fell in the range of 1000 to 5000 nM. `Cc1nc(N2CCC(F)CC2)oc1C(=O)N1CCc2[nH]cnc2C1c1nc2cc(F)ccc2o1` (centres unmarked): the AC50 lay in the range of 1000 to 5000 nM. As for `Cc1ccc2nc(C3c4nc[nH]c4CCN3C(=O)c3cnco3)oc2c1` (centres unmarked), the AC50 is at least 5000 nM. On the same count and under the same terms, with `CC(C)(O)c1nc(C(F)F)c(C(=O)N2CCCc3[nH]cnc3C2c2nc3cc(F)ccc3o2)o1` (centres unmarked) the figure was 1000 to 5000 nM.

In general, AC50 refers to the concentration giving half of the maximal activity seen.
